Inhibition data for seven compounds are collected here from ChEMBL document CHEMBL1135291, “Novel matrix metallo-proteinase (MMP-2) phosphonoboronate inhibitors” (Bioorg Med Chem Lett, 2002).

Each structure is given as a SMILES string.

72 kDa type IV collagenase (Homo sapiens), sequence (P08253 110-660 limits assumed): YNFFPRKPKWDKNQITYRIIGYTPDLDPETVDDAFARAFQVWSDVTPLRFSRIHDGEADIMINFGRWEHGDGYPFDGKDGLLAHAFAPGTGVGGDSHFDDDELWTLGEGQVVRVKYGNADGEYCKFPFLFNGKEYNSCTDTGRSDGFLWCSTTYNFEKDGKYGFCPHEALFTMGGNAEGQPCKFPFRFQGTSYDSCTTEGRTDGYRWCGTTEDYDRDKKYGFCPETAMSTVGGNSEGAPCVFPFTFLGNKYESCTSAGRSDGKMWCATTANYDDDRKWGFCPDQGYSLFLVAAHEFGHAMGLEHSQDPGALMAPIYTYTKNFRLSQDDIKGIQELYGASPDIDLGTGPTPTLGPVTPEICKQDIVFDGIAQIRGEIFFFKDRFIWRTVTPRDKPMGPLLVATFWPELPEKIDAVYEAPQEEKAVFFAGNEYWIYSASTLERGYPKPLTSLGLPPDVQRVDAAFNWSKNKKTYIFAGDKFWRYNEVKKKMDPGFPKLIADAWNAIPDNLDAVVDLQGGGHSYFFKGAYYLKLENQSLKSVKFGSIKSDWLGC

This experiment has as its target 72 kDa type IV collagenase (Homo sapiens) (UniProt P08253). The experiment in a line: Inhibition of Matrix metalloprotease-2 at 50 uM.
`CC1(C)OB(C(CCCCl)P(=O)(O)O)OC1(C)C` (configuration not stated) gave an inhibition of 55%. As for `CC1(C)OB(CP(=O)(O)O)OC1(C)C`, the figure is 50%. `O=P(O)(O)CB(O)O`: the inhibition turned out to be 0%. As for `COP(=O)(CC1OC(C)(C)C(C)(C)O1)OC`, the figure is 0%; as for `CCCCCC(B1OC(C)(C)C(C)(C)O1)P(=O)(O)O` (configuration not stated), 50%.

`CC1(C)OB(/C=C/CP(=O)(O)O)OC1(C)C` gave an inhibition of 75%. As for `CC1(C)OB(C(Cc2ccccc2)P(=O)(O)O)OC1(C)C` (configuration not stated), the figure is 40%.
